Our source for the IC50 and Activity values is ChEMBL document CHEMBL4425148, “Cytotoxic prenylated flavones from the stem and root bark of Daphne giraldii” (Bioorg Med Chem Lett, 2016).

Structures are written as SMILES.

The subject of one assay is A549. Briefly: Cytotoxicity against human A549 cells assessed as reduction in cell growth incubated for 48 hrs by MTT assay. The note with it: A549, 48 h. The assay is classed as functional, cell-based. (Tetrazolium assays rely on reduction of a dye to a coloured formazan, in cell work by metabolically active cells.)
In another assay the test system is U-251. Kind of assay: Cytotoxicity against human U251 cells assessed as reduction in cell growth incubated for 48 hrs by MTT assay. The note with it: U-251, 48 h. The format is functional, cell-based.
The test system of assay [1] is HepG2. Briefly: cells. The note with it: Homo sapiens, HepG2, 48 h.
Another assay deals with Bcap37. Briefly: Cytotoxicity against human Bcap37 cells assessed as reduction in cell growth incubated for 48 hrs by MTT assay. The assay is classed as functional, cell-based. The note with it: Bcap37, 48 h.
Another assay relates to MCF7. Briefly: cells. The note with it: Homo sapiens, MCF7, 48 h.
Assay [2] has as its system HepG2. Briefly: Induction of apoptosis in human HepG2 cells after 48 hrs by Annexin V-FITC/propidium iodide based flow cytometric analysis. The format is functional, cell-based.
Assay [3] relates to HepG2. Briefly: Induction of apoptosis in human HepG2 cells assessed as early apoptotic cells at 2 uM after 48 hrs by Annexin V-FITC/propidium iodide based flow cytometric analysis (reference value: 3.33 %). The format is functional.
Assay [4] relates to HepG2. Kind of assay: Induction of apoptosis in human HepG2 cells assessed as late apoptotic cells at 2 uM after 48 hrs by Annexin V-FITC/propidium iodide based flow cytometric analysis (reference value: 3.81 %). The assay is classed as functional. On the technique in general: Flow cytometry measures light scatter and fluorescence of single cells or particles in a stream.

In general, IC50 refers to the midpoint of a concentration-inhibition curve. In the case of `COc1c(-c2ccc(O)c(O)c2)oc2c(CC=C(C)C)c(O)c(CC=C(C)C)c(O)c2c1=O`, the IC50 in the assay on A549 was found to be 25 µM; with U-251, 17.3 µM; with HepG2 [1] it was 14.1 µM; with Bcap37, 45.4 µM; in the assay on MCF7, 18.8 µM.

Regarding `COc1c(-c2cc(O)c3c(c2)C=CC(C)(C)O3)oc2c3c(cc(O)c2c1=O)OC(C)(C)[C@@H](O)C3`, the IC50 in the assay with A549 came to 5.39 µM; with U-251, 12 µM; with HepG2 [1] it was 4.26 µM; in the assay with Bcap37, 20.8 µM; in the assay on MCF7 it was 6.98 µM. The Activity result with HepG2 [2] is “Dose-dependent effect”; with HepG2 [3], 13.77%; with HepG2 [4], 14.32%.

Regarding `COc1ccc(-c2cc(=O)c3c(O)c(OC)c(O)cc3o2)cc1OC` [EUPATILIN], the IC50 was over 100 µM in the assay with A549; over 100 µM in the assay with U-251; 52.6 µM in the assay with HepG2 [1]; over 100 µM in the assay on Bcap37; 90.1 µM in the assay with MCF7.

Take `CC(C)=CCc1cc([C@@H]2CC(=O)c3ccc(O)cc3O2)c2c(c1O)OC(C)(C)CC2`: the IC50 in the assay on A549 is 18.4 µM; with U-251 it was over 100 µM; in the assay with HepG2 [1], over 100 µM; in the assay on Bcap37, over 100 µM; in the assay with MCF7 it was over 100 µM.

As for `COc1c(-c2cc(O)c3c(c2)C=CC(C)(C)O3)oc2c(CC=C(C)C)c(O)cc(O)c2c1=O`, the IC50 in the assay on A549 was 66.8 µM; with U-251, over 100 µM; with HepG2 [1], 36.7 µM; in the assay on Bcap37, over 100 µM; in the assay on MCF7, 76.9 µM.

With `CC(C)=CCc1c(-c2ccc(O)cc2O)oc2c3c(cc(O)c2c1=O)OC(C)(C)C=C3` [MORUSIN], the IC50 came to 24.1 µM in the assay with A549; 17.9 µM in the assay on U-251; 9.3 µM with HepG2 [1]; 33.1 µM in the assay with Bcap37; 11.5 µM in the assay with MCF7.

Turning to `O=c1[nH]cc(F)c(=O)[nH]1` [FLUOROURACIL], the IC50 is 24.7 µM in the assay with A549, 38.7 µM in the assay on U-251, 39.7 µM in the assay on HepG2 [1] and 37.1 µM with Bcap37.
